Laboratory results reported in ChEMBL document CHEMBL5303304, “EUbOPEN Chemogenomics Library - IncuCyte” (2023).

Tests used:
Format in all cases: toxicity, cell-based
HEK-293T = experiment: Incucyte cell viability with HEK293T; conditions: human, 10 µM, compound concentration 10 uM
U2OS = experiment: Incucyte cell viability with U2OS; conditions: human, 10 µM, compound concentration 10 uM
Fibroblast = experiment: Incucyte cell viability with human fibroblast; conditions: 10 µM, compound concentration 10 uM
Note: unitless GR value; below 1 slowed growth and below 0 cell loss.

Row | Structure (SMILES) | Growth Rate (HEK-293T; 0 h, replicate number 2) | Growth Rate (U2OS; 0 h, replicate number 1) | Growth Rate (U2OS; 0 h, replicate number 2) | Growth Rate (Fibroblast; 6 h, replicate number 1) | Growth Rate (Fibroblast; 12 h, replicate number 1) | Growth Rate (HEK-293T; 6 h, replicate number 1) | Growth Rate (HEK-293T; 6 h, replicate number 2) | Growth Rate (HEK-293T; 12 h, replicate number 1) | Growth Rate (HEK-293T; 12 h, replicate number 2) | Growth Rate (HEK-293T; 18 h, replicate number 1) | Growth Rate (HEK-293T; 18 h, replicate number 2) | Growth Rate (U2OS; 12 h, replicate number 1) | Growth Rate (Fibroblast; 12 h, replicate number 2) | Growth Rate (Fibroblast; 18 h, replicate number 1) | Growth Rate (Fibroblast; 18 h, replicate number 2) | Growth Rate (Fibroblast; 24 h, replicate number 2) | Growth Rate (U2OS; 6 h, replicate number 2) | Growth Rate (U2OS; 12 h, replicate number 2) | Growth Rate (U2OS; 18 h, replicate number 1) | Growth Rate (U2OS; 24 h, replicate number 2) | also measured
1 | CN1CCN(c2nc(C3=C(c4c[nH]c5ccccc45)C(=O)NC3=O)c3ccccc3n2)CC1 [SOTRASTAURIN] | -0.61 | -0.78 | -0.29 | -0.88 | -1 | – | – | – | – | – | – | – | – | – | – | – | – | – | – | – | Growth Rate (HEK-293T; 0 h, replicate number 1): -0.3; Growth Rate (Fibroblast; 0 h, replicate number 2): -0.97
2 | CCOC(=O)N1CCC(CN(Cc2ccc(Cl)cc2)Cc2ccc([N+](=O)[O-])s2)C1 (stereo not drawn) [SR9009] | – | -0.35 | – | 0.43 | 0.41 | 0.39 | 0.23 | 0.42 | 0.27 | 0.48 | 0.28 | 0.94 | 0.2 | 0.3 | 0.38 | 0.39 | – | – | – | – | Growth Rate (HEK-293T; 24 h, replicate number 1): 0.41; Growth Rate (HEK-293T; 24 h, replicate number 2): 0.35; Growth Rate (Fibroblast; 24 h, replicate number 1): 0.48
3 | CCCCCNC(=O)N1CCC(CN(Cc2ccc(Cl)cc2)Cc2ccc([N+](=O)[O-])s2)C1 (stereo not drawn) [SR9011] | -0.74 | 0.35 | – | 0.11 | 0.48 | 0.47 | 0.86 | 0.42 | 0.62 | 0.51 | 0.59 | 0.81 | 0.55 | 0.55 | 0.66 | 0.64 | 0.94 | 0.86 | 0.9 | 0.83 | Growth Rate (HEK-293T; 24 h, replicate number 1): 0.54; Growth Rate (HEK-293T; 24 h, replicate number 2): 0.49; Growth Rate (U2OS; 6 h, replicate number 1): 0.88; Growth Rate (U2OS; 18 h, replicate number 2): 0.94; Growth Rate (U2OS; 24 h, replicate number 1): 0.85; Growth Rate (Fibroblast; 6 h, replicate number 2): -0.29; Growth Rate (Fibroblast; 24 h, replicate number 1): 0.54
4 | CC[N+](CC)(CC)CCOc1ccc(/C=C/c2ccccc2)cc1.[I-] [STILONIUM IODIDE] | 0.44 | -0.67 | -0.99 | – | – | -0.34 | 0 | -0.18 | -0.14 | -0.14 | -0.12 | – | 0.37 | 0.28 | 0.62 | 0.58 | – | 1 | – | 0.84 | Growth Rate (HEK-293T; 0 h, replicate number 1): 1; Growth Rate (HEK-293T; 24 h, replicate number 1): -0.22; Growth Rate (HEK-293T; 24 h, replicate number 2): -0.15; Growth Rate (U2OS; 18 h, replicate number 2): 0.93; Growth Rate (Fibroblast; 0 h, replicate number 1): 0.94; Growth Rate (Fibroblast; 6 h, replicate number 2): -1
5 | O=C1C[C@@H]2OCC=C3CN4CC[C@]56c7ccccc7N1[C@H]5[C@H]2[C@H]3C[C@H]46 [STRYCHNINE] | 0.94 | – | – | 0.71 | -0.92 | – | 0.44 | – | 0.86 | – | – | 0.95 | – | 0.57 | 0.93 | 0.91 | 0.65 | 0.85 | 0.88 | 0.91 | Growth Rate (HEK-293T; 0 h, replicate number 1): 0.93; Growth Rate (U2OS; 18 h, replicate number 2): 0.77; Growth Rate (U2OS; 24 h, replicate number 1): 0.87; Growth Rate (Fibroblast; 0 h, replicate number 2): -0.75; Growth Rate (Fibroblast; 24 h, replicate number 1): 0.81
6 | Nc1ccc(S(=O)(=O)Nc2ccnn2-c2ccccc2)cc1 [SULFAPHENAZOLE] | – | – | -0.29 | -0.25 | -1 | 0.11 | – | 0.6 | – | 0.44 | 0.98 | 0.83 | – | – | – | – | 0.05 | 1 | 0.83 | 0.91 | Growth Rate (HEK-293T; 24 h, replicate number 1): 0.45; Growth Rate (U2OS; 6 h, replicate number 1): 0.27; Growth Rate (U2OS; 18 h, replicate number 2): 0.88; Growth Rate (U2OS; 24 h, replicate number 1): 0.86; Growth Rate (Fibroblast; 0 h, replicate number 1): -0.67; Growth Rate (Fibroblast; 24 h, replicate number 1): 0.6
7 | CS(=O)(=O)NC(=O)CCC/C=C\C[C@H]1C(=O)C[C@@H](O)[C@@H]1/C=C/[C@@H](O)COc1ccccc1 [SULPROSTONE] | 0.72 | 0.72 | 0.8 | 0.27 | 0.85 | – | 0.91 | 0.92 | – | 0.99 | – | 0.97 | 0.39 | 0.95 | 0.47 | 0.63 | 0.91 | 0.91 | 0.83 | 0.94 | Growth Rate (HEK-293T; 0 h, replicate number 1): 0.99; Growth Rate (U2OS; 6 h, replicate number 1): 0.89; Growth Rate (U2OS; 24 h, replicate number 1): 0.87; Growth Rate (Fibroblast; 0 h, replicate number 1): -1; Growth Rate (Fibroblast; 0 h, replicate number 2): -0.81; Growth Rate (Fibroblast; 6 h, replicate number 2): 0.85; Growth Rate (Fibroblast; 24 h, replicate number 1): 0.79
8 | CC(C)c1ccc(CC(=O)N[C@H](C)c2ccc(OCC(F)(F)F)cn2)cc1 [SUVECALTAMIDE] | 0.85 | – | 0.67 | – | – | 0.16 | – | – | 0.87 | – | 0.95 | 0.59 | 0.94 | 0.11 | 0.84 | 0.74 | 0.56 | 0.89 | 0.76 | 0.9 | Growth Rate (HEK-293T; 24 h, replicate number 2): 0.8; Growth Rate (U2OS; 6 h, replicate number 1): -0.32; Growth Rate (U2OS; 18 h, replicate number 2): 0.86; Growth Rate (U2OS; 24 h, replicate number 1): 0.78; Growth Rate (Fibroblast; 0 h, replicate number 1): -0.55; Growth Rate (Fibroblast; 6 h, replicate number 2): -1
9 | C=CC[C@@H]1/C=C(\C)C[C@H](C)C[C@H](OC)[C@H]2O[C@@](O)(C(=O)C(=O)N3CCCC[C@H]3C(=O)O[C@H](/C(C)=C/[C@@H]3CC[C@@H](O)[C@H](OC)C3)[C@H](C)[C@@H](O)CC1=O)[C@H](C)C[C@@H]2OC.O [TACROLIMUS] | -0.12 | 0.59 | -1 | – | – | -0.24 | 0.77 | 0.41 | 0.99 | 0.78 | 0.82 | 0.75 | 0.85 | 0.96 | – | – | 0.5 | 0.7 | 0.81 | 0.85 | Growth Rate (HEK-293T; 24 h, replicate number 1): 0.87; Growth Rate (HEK-293T; 24 h, replicate number 2): 0.99; Growth Rate (U2OS; 6 h, replicate number 1): 0.95; Growth Rate (U2OS; 18 h, replicate number 2): 0.87; Growth Rate (Fibroblast; 0 h, replicate number 2): -0.85; Growth Rate (Fibroblast; 6 h, replicate number 2): -0.26
